In US20020137929A1, “1 - (3-heterocyclylphenyl) isothiourea, -isourea, -guanidine and -amidine herbicidal agents” (Intellectual Property Department, BASF Aktiengesellschaft, priority 1998, published 2002):

How the values were obtained:
AMBEL (Ragweed, Common) = assay: Postemergence herbicidal evaluation; format: in vivo, Ambrosia artemisifolia; details: postemergence
In short: (§1)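 Young plants, roughly two weeks from seeding, receive the active ingredient as a sprayed dispersion (acetone/water 50/50, 0.5% TWEEN 20) at 40 psi. Doses span about 0.0156 to 0.500 kg/ha. A visual score from 0 to 9 compares treated with control plants four to five weeks on.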

GALAP (Galium) = assay: Postemergence herbicidal evaluation; format: in vivo, Galium aparine; details: postemergence
In short: as §1

[1] = system: TRZAWR (Wheat, Winter, cv Riband); assay: Postemergence herbicidal evaluation; format: in vivo, Triticum aestivum; details: postemergence
In short: as §1

[2] = system: CHEAL (Lambsquarters, Common); assay: Preemergence herbicidal evaluation; format: in vivo, Chenopodium album; details: rated 4-5 weeks after treatment
In short: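 Visual 0-9 rating vs control (stand, vigor, malformation, size, chlorosis, overall appearance), scored 4-5 wk after spraying. Seeded soil cups were treated preemergence with compound in aqueous acetone, ~0.0156-0.500 kg/ha equivalent.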

[3] = rate 0.0313 kg/ha, rating scale 0-9
[4] = rate 0.0625 kg/ha, rating scale 0-9
[5] = rate 0.1250 kg/ha, rating scale 0-9
[6] = rate 0.2500 kg/ha, rating scale 0-9

| SMILES | Preemergence herbicidal rating CHEAL ([2]; rate 0.0313 kg/ha) | Preemergence herbicidal rating CHEAL ([2]; rate 0.0625 kg/ha) | Preemergence herbicidal rating CHEAL ([2]; rate 0.1250 kg/ha) | Preemergence herbicidal rating CHEAL ([2]; rate 0.2500 kg/ha) | herbicidal rating AMBEL (AMBEL (Ragweed, Common); rate 0.0156 kg/ha) | herbicidal rating AMBEL (AMBEL (Ragweed, Common); rate 0.0313 kg/ha) | herbicidal rating AMBEL (AMBEL (Ragweed, Common); rate 0.0625 kg/ha) | herbicidal rating GALAP (GALAP (Galium); rate 0.0156 kg/ha) | herbicidal rating GALAP (GALAP (Galium); rate 0.0313 kg/ha) | herbicidal rating GALAP (GALAP (Galium); rate 0.0625 kg/ha) | herbicidal rating TRZAWR ([1]; rate 0.0156 kg/ha) | herbicidal rating TRZAWR ([1]; rate 0.0313 kg/ha) | herbicidal rating TRZAWR ([1]; rate 0.0625 kg/ha) | Preemergence herbicidal rating CHEAL ([2]; rate 0.5000 kg/ha) | Preemergence herbicidal rating CHEAL [2, 4] | Preemergence herbicidal rating CHEAL [2, 5] | Preemergence herbicidal rating CHEAL [2, 6] | further results |
| --- | --- | --- | --- | --- | --- | --- | --- | --- | --- | --- | --- | --- | --- | --- | --- | --- | --- | --- |
| CCCCOC(=O)CN1C(=O)CSC1=Nc1cc(-n2c(=O)cc(C(F)(F)F)n(C)c2=O)c(F)cc1Cl [Compound 111] | 0.0 | 9.0 | 9.0 | 9.0 |  |  |  |  |  |  |  |  |  |  |  |  |  | herbicidal rating AMBEL (AMBEL (Ragweed, Common); rate 0.0158 kg/ha): 4.0; herbicidal rating AMBEL (AMBEL (Ragweed, Common); rate 0.0315 kg/ha): 6.0; herbicidal rating AMBEL (AMBEL (Ragweed, Common); rate 0.0630 kg/ha): 9.0; herbicidal rating GALAP (GALAP (Galium); rate 0.0158 kg/ha): 0.0; herbicidal rating GALAP (GALAP (Galium); rate 0.0315 kg/ha): 0.0; herbicidal rating GALAP (GALAP (Galium); rate 0.0630 kg/ha): 1.0; herbicidal rating TRZAWR ([1]; rate 0.0158 kg/ha): 2.5; herbicidal rating TRZAWR ([1]; rate 0.0315 kg/ha): 4.5; herbicidal rating TRZAWR ([1]; rate 0.0630 kg/ha): 5.5 |
| CCOC(=O)CN1C(=O)C(C(=O)OCC)SC1=Nc1cc(-n2c(=O)cc(C(F)(F)F)n(C)c2=O)c(F)cc1Cl (centres unmarked) [Compound 127, 5-Carboxy-2-{{2-chloro-5-[3,6-dihydro-3-methyl-2,6-dioxo-4-(trifluoromethyl)-1(2H)-pyrimidinyl]-4-fluorophenyl}imino}-4-oxo-3-thiazolidineacetic acid, diethyl ester] | 9.0 | 9.0 | 9.0 | 9.0 | 9.0 | 9.0 | 9.0 | 0.0 | 0.0 | 2.0 | 2.5 | 2.5 | 3.5 | 9.0 |  |  |  | herbicidal rating AMBEL (AMBEL (Ragweed, Common); rate 0.1250 kg/ha): 9.0; herbicidal rating GALAP (GALAP (Galium); rate 0.1250 kg/ha): 3.0; herbicidal rating TRZAWR ([1]; rate 0.1250 kg/ha): 6.0 |
| Cn1c(C(F)(F)F)cc(=O)n(-c2cc(N=C3SCC(=O)N3CC(=O)OCC3CC3)c(Cl)cc2F)c1=O [Compound 124, Cyclopropylmethyl 2-{{2-chloro-5-[3,6-dihydro-3-methyl-2,6-dioxo-4-(trifluoromethyl)-1(2H)-pyrimidinyl]-4-fluorophenyl}imino}-4-oxo-3-thiazolidineacetate] | 9.0 | 9.0 | 9.0 | 9.0 | 9.0 | 9.0 | 9.0 | 0.0 | 1.0 | 6.0 | 3.7 | 4.3 | 5.0 | 9.0 |  |  |  | Preemergence herbicidal rating CHEAL ([2]; rate 0.0156 kg/ha): 9.0 |
| C#CC(C)N1C(=O)CSC1=Nc1cc(-n2c(=O)cc(C(F)(F)F)n(C)c2=O)c(F)cc1Cl (centres unmarked) [Compound 165, 3-{4-Chloro-2-fluoro-5-{[3-(1-methyl-2-propynyl)-4-oxo-2-thiazolidinylidene]amino}phenyl}-1-methyl-6-(trifluoromethyl)-2,4(1H,3H)-pyrimidinedione] |  |  |  |  | 2.0 | 6.0 | 7.0 | 0.0 | 1.0 | 4.0 | 3.0 | 3.0 | 4.0 |  |  |  |  | herbicidal rating AMBEL (AMBEL (Ragweed, Common); rate 0.1250 kg/ha): 9.0; herbicidal rating GALAP (GALAP (Galium); rate 0.1250 kg/ha): 5.0; herbicidal rating TRZAWR ([1]; rate 0.1250 kg/ha): 5.0; Preemergence herbicidal rating CHEAL ([2]; 0.0156 kg/ha): 4.0; Preemergence herbicidal rating CHEAL ([2]; 0.0313 kg/ha): 9.0; Preemergence herbicidal rating CHEAL ([2]; 0.0625 kg/ha): 9.0; Preemergence herbicidal rating CHEAL ([2]; 0.1250 kg/ha): 9.0; Preemergence herbicidal rating CHEAL ([2]; 0.2500 kg/ha): 9.0; Preemergence herbicidal rating CHEAL ([2]; 0.5000 kg/ha): 9.0 |
| CCOC(=O)CN1C(=O)C(SC)SC1=Nc1cc(-n2c(=O)cc(C(F)(F)F)n(C)c2=O)c(F)cc1Cl (centres unmarked) [Compound 125, Ethyl 2-{{2-chloro-5-[3,6-dihydro-3-methyl-2,6-dioxo-4-(trifluoromethyl)-1(2H)-pyrimidinyl]-4-fluorophenyl}imino}-5-(methylthio)-4-oxo-3-thiazolidineacetate] | 9.0 | 9.0 | 9.0 | 9.0 | 3.0 | 8.0 | 8.0 | 1.0 | 2.0 | 5.0 | 4.3 | 5.0 | 5.0 | 9.0 |  |  |  | Preemergence herbicidal rating CHEAL ([2]; rate 0.0156 kg/ha): 9.0 |
| COCCOC(=O)CN1C(=O)CSC1=Nc1cc(-n2c(=O)cc(C(F)(F)F)n(C)c2=O)c(F)cc1Cl [Compound 107, 2-Methoxyethyl 2-{{2-chloro-5-[3,6-dihydro-3-methyl-2,6-dioxo-4-(trifluoromethyl)-1(2H)-pyrimidinyl]-4-fluorophenyl}imino}-4-oxo-3-thiazolidineacetate] |  | 6.0 | 9.0 | 9.0 |  |  |  |  |  |  |  |  |  |  |  |  |  | herbicidal rating AMBEL (AMBEL (Ragweed, Common); rate 0.0158 kg/ha): 2.0; herbicidal rating AMBEL (AMBEL (Ragweed, Common); rate 0.0315 kg/ha): 2.0; herbicidal rating AMBEL (AMBEL (Ragweed, Common); rate 0.0630 kg/ha): 2.0; herbicidal rating GALAP (GALAP (Galium); rate 0.0158 kg/ha): 0.0; herbicidal rating GALAP (GALAP (Galium); rate 0.0315 kg/ha): 0.0; herbicidal rating GALAP (GALAP (Galium); rate 0.0630 kg/ha): 0.0; herbicidal rating TRZAWR ([1]; rate 0.0158 kg/ha): 2.0; herbicidal rating TRZAWR ([1]; rate 0.0315 kg/ha): 3.0; herbicidal rating TRZAWR ([1]; rate 0.0630 kg/ha): 5.0 |
| Cn1c(C(F)(F)F)cc(=O)n(-c2cc(N=C3SCC(=O)N3Cc3ccc(Cl)cc3)c(Cl)cc2F)c1=O [Compound 145, 3-{4-Chloro-5-{[3-(p-chlorobenzyl)-4-oxo-2-thiazolidinylidene]amino}-2-fluorophenyl}-1-methyl-6-(trifluoromethyl)-2,4(1H,3H)-pyrimidinedione] |  |  |  |  | 9.0 | 9.0 | 9.0 | 1.0 | 4.0 | 7.0 | 3.0 | 3.0 | 4.0 |  | 7.0 | 9.0 | 9.0 | Preemergence herbicidal rating CHEAL ([2]; rate 0.0156 kg/ha, rating scale 0-9): 7.0; Preemergence herbicidal rating CHEAL [2, 3]: 9.0 |
| Cn1c(C(F)(F)F)cc(=O)n(-c2cc(N=C3SCC(=O)N3CC(F)(F)F)c(Cl)cc2F)c1=O [Compound 163, 3-{4-Chloro-2-fluoro-5-{[4-oxo-3-(2,2,2-trifluoroethyl)-2-thiazolidinylidene]amino}phenyl}-1-methyl-6-(trifluoromethyl)-2,4(1H,3H)-pyrimidinedione] |  |  |  |  | 9.0 | 9.0 | 9.0 | 0.0 | 3.0 | 5.0 | 3.5 | 4.0 | 4.5 |  |  |  |  | Preemergence herbicidal rating CHEAL ([2]; 0.0156 kg/ha): 9.0; Preemergence herbicidal rating CHEAL ([2]; 0.0313 kg/ha): 9.0; Preemergence herbicidal rating CHEAL ([2]; 0.0625 kg/ha): 9.0; Preemergence herbicidal rating CHEAL ([2]; 0.1250 kg/ha): 9.0; Preemergence herbicidal rating CHEAL ([2]; 0.2500 kg/ha): 9.0 |
| Cn1c(C(F)(F)F)cc(=O)n(-c2cc(N=C3SCC(=O)N3Cc3ccccc3Cl)c(Cl)cc2F)c1=O [Compound 143] |  |  |  |  | 9.0 | 9.0 | 9.0 | 0.0 | 1.0 | 3.0 | 1.5 | 2.0 | 3.5 |  | 7.0 | 9.0 | 9.0 | Preemergence herbicidal rating CHEAL [2, 3]: 7.0 |
| COCCN1C(=O)CSC1=Nc1cc(-n2c(=O)cc(C(F)(F)F)n(C)c2=O)c(F)cc1Cl [Compound 155, 3-{4-Chloro-2-fluoro-5-{[3-(2-methoxyethyl)-4-oxo-2-thiazolidinylidene]amino}phenyl}-1-methyl-6-(trifluoromethyl)-2,4(1H,3H)-pyrimidinedione] |  |  |  |  | 0.0 | 0.0 | 0.0 | 0.0 | 0.0 | 0.0 | 1.0 | 2.0 | 3.0 |  | 0.0 | 9.0 | 9.0 |  |
